Measurements from PubChem BioAssay (NCI).
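These data come from cells grown in 96-well plates and exposed to compound for 48 hours at five concentrations. GI50: concentration for 50% inhibition of growth. TGI marks complete inhibition of growth.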

Tests used:
Assay in all cases: growth of human tumour cells (NCI), 48 h
HOP-92 NSCLC = tested on: HOP-92 NSCLC
SW-620 colon = tested on: SW-620 colon
HOP-62 NSCLC = tested on: HOP-62 NSCLC
CAKI-1 renal = tested on: CAKI-1 renal
RPMI-8226 leukemia = tested on: RPMI-8226 leukemia
HCT-15 colon = tested on: HCT-15 colon
MDA-MB-231 breast = tested on: MDA-MB-231 breast
MCF7 breast = tested on: MCF7 breast
MOLT-4 leukemia = tested on: MOLT-4 leukemia
OVCAR-3 ovarian = tested on: OVCAR-3 ovarian

| SMILES | GI50 (HOP-92 NSCLC) [µM] | TGI (HOP-92 NSCLC) [µM] | GI50 (SW-620 colon) [µM] | TGI (SW-620 colon) [µM] | GI50 (HOP-62 NSCLC) [µM] | TGI (HOP-62 NSCLC) [µM] | GI50 (CAKI-1 renal) [µM] | TGI (CAKI-1 renal) [µM] | GI50 (RPMI-8226 leukemia) [µM] | TGI (RPMI-8226 leukemia) [µM] | GI50 (HCT-15 colon) [µM] | TGI (HCT-15 colon) [µM] | GI50 (MDA-MB-231 breast) [µM] | TGI (MDA-MB-231 breast) [µM] | GI50 (MCF7 breast) [µM] | TGI (MCF7 breast) [µM] | GI50 (MOLT-4 leukemia) [µM] | TGI (MOLT-4 leukemia) [µM] | GI50 (OVCAR-3 ovarian) [µM] | TGI (OVCAR-3 ovarian) [µM] |
| --- | --- | --- | --- | --- | --- | --- | --- | --- | --- | --- | --- | --- | --- | --- | --- | --- | --- | --- | --- | --- |
| CNC(=O)c1c(NC(=O)c2cccc(C(F)(F)F)c2)sc2c1CCC(=O)C2 | 0.383 | 2.58 | 0.254 | 1.75 | 1.94 | > 48.6 | 0.282 | 1.22 | 0.198 | 0.781 | 0.249 | 1.51 | 0.332 | 1.88 | 0.283 | 2.84 | 0.356 | 4.63 | 0.448 | 2.04 |
| CCOC(=O)c1cc2c(n1Cc1cc(OC)cc(OC)c1)-c1oncc1CCC2 | 0.0858 | 7.37 | 0.0784 | > 100 | 0.242 | > 100 | 0.101 | > 100 | 0.116 | > 33.7 | 0.0678 | > 100 | 0.439 | > 24.5 | 0.0401 | > 100 | 0.387 | > 100 | 0.0274 | 0.0889 |
| Cc1ccc2c[c]1[Hg][CH2]COS2(=O)=O | 19.5 | 38.3 | 17.8 | 31.6 | 71.7 | > 100 | – | – | – | – | 16.4 | 30 | 17.5 | 32 | 17.9 | 39.4 | 18.1 | 34.1 | – | – |
| C=C1C(=O)O[C@H]2[C@H]1CC/C(CNS(=O)(=O)c1ccc3ccccc3c1)=C\CC[C@@]1(C)O[C@@H]21 | 1.89 | 6.34 | 1.01 | 2.44 | 12.5 | 29.6 | – | – | 1.46 | 4.5 | 1.27 | 2.77 | 2.15 | 5.36 | 0.943 | 2.62 | 1.56 | 4.71 | 0.805 | 2.12 |
| O=C(Nc1ccc(Cl)cc1)c1cc2c(cc1O)[nH]c1ccccc12 | 3.18 | 12.5 | 3.4 | 13.4 | 2.8 | 6.6 | 2.26 | 6.02 | 2.71 | 8.45 | 3.24 | 13.1 | 2.24 | 6.94 | 2.56 | 10 | 4.18 | 47.4 | 3.72 | 12.2 |
| NC1C2C(CC(=O)O)OCC=C3CN4CCC1(C(=O)C(=O)O)C4CC32 (centres undefined) | – | > 100 | – | > 100 | – | > 100 | – | > 100 | – | – | – | > 100 | – | > 100 | – | > 100 | – | > 100 | – | > 100 |
| O=CN1N=C(c2ccc(Nc3ccnc4cc(Cl)ccc34)cc2)CC1c1ccccc1 (centres undefined) | 4.28 | > 100 | 2.73 | 9.43 | 5.26 | 76.5 | 3.82 | 32.2 | 2.55 | 12.3 | 2.54 | 14.4 | 2.43 | 13.7 | 3.42 | 26.7 | 2.28 | 6.4 | 2.78 | 7.71 |
| CC/C=C\C/C=C\C[C@H](O)C/C=C1/C(=O)C=C[C@H]1C/C=C\CCC(=O)OC | > 8.25 | > 8.25 | 2.19 | > 8.25 | 3.17 | > 8.25 | 6.01 | > 8.25 | 1.59 | 5.01 | 1.85 | 6.47 | 3.5 | > 8.25 | 2.43 | > 8.25 | 2.93 | > 8.25 | 2.08 | 7.71 |
| COc1cc2c(c(OC)c1OC)-c1ccc(NNC(=S)N(Cc3cccc(C[N+](Cc4cccc(CNC56CC7CC(CC(C7)C5)C6)c4)(Cc4cccc(CNC56CC7CC(CC(C7)C5)C6)c4)Cc4cccc(CN(C(=S)NNc5ccc6c(cc5=O)[C@@H](NC(C)=O)CCc5cc(OC)c(OC)c(OC)c5-6)C56CC7CC(CC(C7)C5)C6)c4)c3)C34CC5CC(CC(C5)C3)C4)c(=O)cc1[C@@H](NC(C)=O)CC2 (some centres undefined) | 0.897 | 4.08 | 0.814 | 2.06 | 2.14 | 7.43 | 3.2 | 7.37 | 0.757 | 1.76 | 1.56 | 5.96 | 0.994 | 2.99 | 0.862 | 3.44 | 0.562 | 1.93 | 1.66 | 6.53 |
| COC(=O)Nc1nc2ccc(Oc3ccc(NC(=O)Nc4cccc(Br)c4)cc3)cc2[nH]1 | 3.33 | 12.7 | 1.48 | 17.6 | 1.24 | 8.67 | 8.74 | > 25 | 8.24 | > 25 | 2.3 | > 25 | 5.74 | > 25 | 0.22 | 3.77 | 4.03 | > 15.4 | 1.07 | 3.99 |
| NC(=O)C(Br)CBr (centres undefined) | 1.39 | 3.1 | 1.29 | 2.79 | 18.4 | 43.5 | 0.472 | 1.16 | 2.82 | 11.9 | 1.46 | 3.39 | 2.3 | 4.76 | 2.18 | 11.5 | 1.42 | 4.15 | 1.48 | 2.83 |
| CC1=C(C(=O)Nc2ccc3[nH]ncc3c2)C(c2ccc(F)cc2)NC(=O)N1 (centres undefined) | 0.425 | > 25 | > 25 | > 25 | > 25 | > 25 | > 25 | > 25 | > 25 | > 25 | > 25 | > 25 | > 25 | > 25 | > 25 | > 25 | > 25 | > 25 | > 25 | > 25 |
| COc1cc2c(cc1OCCCOC1=C=C=C(c3ccc4c(c3)c3cc(-c5ccc(OCCCOc6cc7c(cc6OC)C(=O)N6CCC[C@H]6C=N7)cc5)ccc3n4S(=O)(=O)c3ccc(C)cc3)C=C1)N=C[C@@H]1CCCN1C2=O | 0.79 | 3.37 | 1.16 | 6.33 | 1.99 | 8.6 | 1.29 | 6.21 | 0.665 | > 14.5 | 7 | 20.3 | 5.31 | 16 | 1.23 | 11.3 | 0.739 | > 50 | 0.959 | 2.23 |
| CC1=C(SCc2ccccc2)C(=O)c2ccccc2C1=O | – | 19 | – | > 100 | – | 33.5 | – | 26.2 | – | 7.36 | – | 43.5 | – | 41.3 | – | 40.6 | – | 4.51 | – | 23.1 |
| CN(C)c1ccc(C(=O)c2ccc(N(C)C)c(N)c2)cc1N | 1.46 | > 70.4 | 1.14 | > 100 | 5.91 | > 100 | 3.02 | > 43.3 | 1.33 | > 100 | 2.35 | > 100 | 5.81 | > 77.6 | 0.686 | > 59.9 | 2.76 | > 57.6 | 1.86 | 8 |
| Cc1[nH]c(C(=O)Nc2ccc(C(=O)N3CCNCC3)cc2OC(C)C)c(Cl)c1Cl | 1.62 | 6.07 | 1.9 | 3.59 | 1.81 | 4.65 | 3.61 | 15.1 | 2.31 | 5.51 | 1.82 | 3.43 | 1.67 | 3.33 | 1.8 | 3.59 | 2.32 | 5.1 | 2.19 | 4.62 |
| Cc1nc2cncc(C#Cc3cncc(C(=O)Nc4ccc(CN5CCN(C)CC5)c(C(F)(F)F)c4)c3)c2nc1C | 0.204 | 1.13 | 0.284 | 1.64 | 0.839 | 5 | 0.438 | 3.1 | 0.487 | 4.49 | 0.286 | 5.92 | 0.229 | 1.03 | 0.841 | 6.78 | 0.45 | 10.4 | 0.899 | 6.54 |
| C[N+](C)([O-])CCCNc1c2ccccc2nc2cccc([N+](=O)[O-])c12 | – | 0.806 | – | – | – | 3.23 | – | 11.6 | – | – | – | 4.93 | – | 1.48 | – | 0.623 | – | – | – | 5.65 |
| NS(=O)(=O)c1ccc(C2C3=C(CCCC3=O)OC3=C2C(=O)c2ccccc2C3=O)cc1 (centres undefined) | 0.847 | 2.48 | 0.417 | 1.33 | 1.49 | 2.91 | 1.74 | 3.2 | 0.41 | 1.99 | 1.33 | 3.46 | 0.318 | 0.938 | 0.221 | 0.752 | 0.293 | 0.848 | 0.244 | 0.724 |
| COc1cc(C(=O)/C=C/c2c(-c3ccc(F)cc3)nc3sc(C)cn23)cc(OC)c1OC | 0.155 | 6.32 | 5.34 | > 100 | 85.1 | > 100 | 1.78 | 53.1 | 2.32 | > 100 | 3.75 | > 100 | 5.38 | > 100 | 1.81 | > 100 | 1.62 | 5.13 | 3.66 | > 100 |
| O=C(Nc1c(Cl)cc([N+](=O)[O-])cc1Cl)C(=O)C1C(=O)NC(=S)NC1=O | – | > 100 | – | > 100 | – | > 100 | – | > 100 | – | > 100 | – | > 100 | – | > 100 | – | > 100 | – | – | – | > 100 |
| c1cc(C2CCCCC2)ccc1OCCCCCCN1CCNCC1 | 1.55 | 5.23 | 1.78 | 3.4 | – | – | 2.01 | 4.54 | – | – | 1.64 | 3.25 | 1.61 | 3.29 | 1.63 | 3.32 | – | – | 1.82 | 3.57 |
| COc1ccc(C(O)c2cc3c(N)c(C(=O)Nc4cccc(Cl)c4C)sc3nc2C)cc1 (centres undefined) | 0.618 | 1.68 | 0.831 | 1.65 | – | – | 0.689 | 1.38 | 0.681 | 1.85 | 0.623 | 1.33 | 0.781 | 1.57 | 0.569 | 1.24 | 0.846 | 2.13 | 0.814 | 1.79 |
| O=C1c2ccccc2-c2nccc3cc(Cl)nc1c23 | 1.56 | 5.64 | 1.15 | 2.37 | 2.89 | 18.6 | > 100 | > 100 | 0.705 | 3.35 | – | – | 4.62 | > 73.4 | 1.3 | 2.72 | 2.21 | > 26.8 | 0.631 | 1.79 |
| Cn1c(=O)c(Oc2cccc(F)c2)cc2cnc(NC3CCOCC3)nc21 | 4.47 | 24.5 | > 25 | > 25 | > 25 | > 25 | > 22.4 | > 25 | > 25 | > 25 | > 25 | > 25 | > 25 | > 25 | > 25 | > 25 | – | – | > 25 | > 25 |
| O=Nc1c(-c2cccc([N+](=O)[O-])c2)nc2cnccn12 | – | 38.4 | – | 35.7 | – | 90.1 | – | 43 | – | – | – | 30.7 | – | 26.7 | – | > 100 | – | 27.6 | – | 37.4 |
